According to patent publication US9388162B2, “Substituted morphinans and the use thereof” (Purdue Pharma L.P., priority 2012, dated 2016):

How the values were obtained:
Format in all cases: biochemical
μ-opioid receptors [1] = biological target: T1, μ-opioid receptors (Homo sapiens (Human), UniProt P35372); assay: μ-opioid receptor [35S]GTPγS functional assay, HEK-293 cells; settings: μ GTP; for EC50: read-out: Activity Response μ EC50 (nM) [mean ± SEM]; for Emax: relative to DAMGO, read-out: Activity Response μ Emax (%)
Protocol: (§1) [^35S]GTPγS functional assays were conducted using freshly thawed μ-receptor membranes prepared from a cell line expressing recombinant μ opioid receptor in a HEK-293, CHO or U-2 OS cell background or purchased from a commercial source (Perkin Elmer, Shelton, Conn.; or DiscovRx, Fremont, Calif.). Assay reactions were prepared by sequentially adding the following reagents to binding buffer (100 mM NaCl, 10 mM MgCl2, 20 mM HEPES, pH 7.4) on ice (final concentrations indicated): membrane protein (0.026 mg/mL), saponin ([…]), GDP ([…]) and [^35S]GTPγS (0.20 nM; Perkin Elmer, Shelton, Conn.). The prepared membrane solution (190 μl/well) was transferred to 96-shallow well polypropylene plates containing 10 μl of 20× concentrated stock solutions of the agonist [D-Ala^2, N-methyl-Phe^4 Gly-ol^5]-enkephalin (DAMGO) prepared in dimethyl sulfoxide (DMSO). Plates were incubated for 30 min at about 25° C. with shaking. Reactions were terminated by rapid filtration onto 96-well Unifilter GF/B filter plates (Perkin Elmer, Shelton, Conn.) using a 96-well tissue harvester (Perkin Elmer, Shelton, Conn.) followed by three filtration washes with 200 μl of ice-cold wash buffer (10 mM NaH2PO4, 10 mM Na2HPO4, pH 7.4). Filter plates were subsequently dried at 50° C. for 2-3 hours. BetaScint scintillation cocktail (Perkin Elmer, Shelton, Conn.) was added (50 μl/well) and plates were counted using a Packard Top-Count for 1 min/well. Data were analyzed using the sigmoidal dose-response curve fitting functions in GraphPad PRISM v. 3.0, or an in-house function for non-linear, sigmoidal dose-response curve-fitting.
(§2) μ GTP EC50 is the concentration of a compound providing 50% of the maximal response for the compound at a μ-opioid receptor.
(§3) μ GTP Emax (%) is the maximal effect elicited by a compound relative to the effect elicited by DAMGO, a standard μ agonist. Generally, the μ GTP Emax (%) value measures the efficacy of a compound to treat or prevent pain or other Conditions.
(§4) The following tables provide results on the efficacy of binding and activity response of exemplified Compounds of the Invention at the μ- and κ-opioid receptors. In TABLE 3, binding affinity of certain Compounds of the Invention to the μ- and κ-opioid receptors was determined as described above. In TABLE 4, activity response of certain Compounds of the Invention to the μ- and κ-opioid receptors was determined as described above for functional assays using HEK-293 cells. In TABLE 5, activity response of certain Compounds of the Invention to the μ- and κ-opioid receptors was determined as described above using U-2 OS cells.

κ opioid receptor [2] = biological target: T2, κ opioid receptor (Homo sapiens (Human), UniProt P41145); assay: κ-opioid receptor [35S]GTPγS functional assay, HEK-293 cells; settings: κ GTP; for EC50: read-out: Activity Response κ EC50 (nM) [mean ± SEM]; for Emax: relative to U69,593, read-out: Activity Response κ Emax (%)
Protocol: (§5) Membranes from HEK-293 cells, CHO or U-2 OS cells expressing the recombinant human kappa opioid receptor (κ) were prepared by lysing cells in ice cold hypotonic buffer (2.5 mM MgCl2, 50 mM HEPES, pH 7.4) (10 mL/10 cm dish) followed by homogenization with a tissue grinder/Teflon pestle. Membranes were collected by centrifugation at 30,000×g for 15 min at 4° C. and pellets were resuspended in hypotonic buffer to a final concentration of 1-3 mg/mL. Protein concentrations were determined using the BioRad protein assay reagent with bovine serum albumen as standard. Aliquots of κ receptor membranes were stored at −80° C.
(§6) Functional [^35S]GTPγS binding assays were conducted as follows. κ opioid receptor membrane solution was prepared by sequentially adding final concentrations of 0.026 μg/μl κ membrane protein (in-house), 10 μg/mL saponin, 3 μM GDP and 0.20 nM [^35S]GTPγS to binding buffer (100 mM NaCl, 10 mM MgCl2, 20 mM HEPES, pH 7.4) on ice. The prepared membrane solution (190 μl/well) was transferred to 96-shallow well polypropylene plates containing 10 μl of 20× concentrated stock solutions of agonist prepared in DMSO. Plates were incubated for 30 min at a temperature of about 25° C. with shaking. Reactions were terminated by rapid filtration onto 96-well Unifilter GF/B filter plates (Perkin Elmer, Shelton, Conn.) using a 96-well tissue harvester (Packard) and followed by three filtration washes with 200 μl ice-cold binding buffer (10 mM NaH2PO4, 10 mM Na2HPO4, pH 7.4). Filter plates were subsequently dried at 50° C. for 2-3 hours. Fifty μl/well scintillation cocktail (Perkin Elmer, Shelton, Conn.) was added and plates were counted in a Packard Top-Count for 1 min/well.
(§7) κ GTP EC50 is the concentration of a compound providing 50% of the maximal response for the compound at a κ receptor.
(§8) κ GTP Emax (%) is the maximal effect elicited by a compound relative to the effect elicited by U69,593.
as §4, with “In” for “The following tables provide results on the efficacy of binding and activity response of exemplified Compounds of the Invention at the μ- and κ-opioid receptors. In”

μ-opioid receptors [3] = biological target: T1, μ-opioid receptors; assay: μ-opioid receptor [35S]GTPγS functional assay, U-2 OS cells; settings: μ GTP; for EC50: read-out: Activity Response μ EC50 (nM) [mean ± SEM]; for Emax: relative to DAMGO, read-out: Activity Response μ Emax (%)
Protocol: as §1, §2, §3, §4

κ opioid receptor [4] = biological target: T2, κ opioid receptor; assay: κ-opioid receptor [35S]GTPγS functional assay, U-2 OS cells; settings: κ GTP; for EC50: read-out: Activity Response κ EC50 (nM) [mean ± SEM]; for Emax: relative to U69,593, read-out: Activity Response κ Emax (%)
Protocol: as §5, §6, §7, §8
as §4, with “In” for “The following tables provide results on the efficacy of binding and activity response of exemplified Compounds of the Invention at the μ- and κ-opioid receptors. In”

Row | Compound | EC50 (μ-opioid receptors [1]) | Emax (μ-opioid receptors [1]) | EC50 (κ opioid receptor [2]) | Emax (κ opioid receptor [2]) | EC50 (μ-opioid receptors [3]) | Emax (μ-opioid receptors [3]) | EC50 (κ opioid receptor [4]) | Emax (κ opioid receptor [4])
1 | CCS(=O)(=O)N[C@H]1C[C@@]2(O)[C@H]3Cc4ccc(O)cc4[C@@]2(CCN3CC2CC2)CC1=O [Compound 42, N-((4bR,7S,8aS,9R)-11-(cyclopropylmethyl)-3,8a-dihydroxy-6-oxo-6,7,8,8a,9,10-hexahydro-5H-9,4b-(epiminoethano)phenanthren-7-yl)ethanesulfonamide] | > 200000 nM | 5.5% | – | – | – | – | – | –
2 | O=C1C[C@]23CCN(CC4CC4)[C@H](Cc4ccc(O)cc42)[C@]3(O)C[C@@H]1NS(=O)(=O)c1ccccc1 [Compound 43, N-((4bR,7S,8aS,9R)-11-(cyclopropylmethyl)-3,8a-dihydroxy-6-oxo-6,7,8,8a,9,10-hexahydro-5H-9,4b-(epiminoethano)phenanthren-7-yl)benzenesulfonamide] | > 200000 nM | 0% | – | – | – | – | – | –
3 | O=C1C[C@]23CCN(CC4CC4)[C@H](Cc4ccc(O)cc42)[C@]3(O)C[C@@H]1CCO [Compound 54, (4bR,7S,8aS,9R)-11-(cyclopropylmethyl)-3,8a-dihydroxy-7-(2-hydroxyethyl)-8,8a,9,10-tetrahydro-5H-9,4b-(epiminoethano)phenanthren-6(7H)-one] | 14.2 ± 3.39 nM | 25 ± 2.04% | 5.02 ± 0.14 nM | 34.3 ± 0.67% | 1.81 ± 0.57 nM | 26.3 ± 2.33% | 4.82 ± 0.71 nM | 88.2 ± 2.53%
4 | CC(C)CC[C@H]1C[C@@]2(O)[C@H]3Cc4ccc(O)cc4[C@@]2(CCN3CC2CC2)CC1=O [Compound 64, (4bR,7S,8aS,9R)-11-(cyclopropylmethyl)-3,8a-dihydroxy-7-isopentyl-8,8a,9,10-tetrahydro-5H-9,4b-(epiminoethano)phenanthren-6(7H)-one] | > 200000 nM | 1% | 4.3 ± 1.55 nM | 33 ± 1.73% | > 200000 nM | 7.5% | 4.71 ± 0.12 nM | 87.3 ± 2.6%
5 | COc1ccc2c(c1)[C@]13CCN(C)[C@H](C2)[C@]1(O)C[C@H](CC(=O)N1CCCCC1)C(=O)C3 [Compound 76, (4bR,7R,8aS,9R)-8a-hydroxy-3-methoxy-11-methyl-7-(2-oxo-2-(piperidin-1-yl)ethyl)-8,8a,9,10-tetrahydro-5H-9,4b-(epiminoethano)phenanthren-6(7H)-one] | – | – | – | – | 16700 ± 2270 nM | 61.7 ± 1.86% | > 200000 nM | 47.7 ± 2.19%
6 | COc1ccc2c(c1)[C@]13CCN(C)[C@H](C2)[C@]1(O)C[C@H](CC(=O)N1CCCC1)C(=O)C3 [Compound 77, (4bR,7R,8aS,9R)-8a-hydroxy-3-methoxy-11-methyl-7-(2-oxo-2-(pyrrolidin-1-yl)ethyl)-8,8a,9,10-tetrahydro-5H-9,4b-(epiminoethano)phenanthren-6(7H)-one] | – | – | – | – | 17600 ± 3650 nM | 77 ± 2.08% | > 200000 nM | 49 ± 9.45%
7 | COc1ccc2c(c1)[C@]13CCN(C)[C@H](C2)[C@]1(O)C[C@H](CC(=O)N1CCC(O)CC1)C(=O)C3 [Compound 78, (4bR,7R,8aS,9R)-8a-hydroxy-7-(2-(4-hydroxypiperidin-1-yl)-2-oxoethyl)-3-methoxy-11-methyl-8,8a,9,10-tetrahydro-5H-9,4b-(epiminoethano)phenanthren-6(7H)-one] | – | – | – | – | 10400 ± 4810 nM | 36.7 ± 9.17% | > 200000 nM | 53.3 ± 1.45%
8 | COc1ccc2c(c1)[C@]13CCN(C)[C@H](C2)[C@]1(O)C[C@H](CC(=O)N1CCOCC1)C(=O)C3 [Compound 79, (4bR,7R,8aS,9R)-8a-hydroxy-3-methoxy-11-methyl-7-(2-morpholino-2-oxoethyl)-8,8a,9,10-tetrahydro-5H-9,4b-(epiminoethano)phenanthren-6(7H)-one] | – | – | – | – | 11700 ± 3620 nM | 60 ± 10.2% | > 200000 nM | 51 ± 0.58%
9 | CN1CC[C@]23CC(=O)[C@@H](CC(=O)N4CCCCC4)C[C@@]2(O)[C@H]1Cc1ccc(O)cc13 [Compound 80, (4bR,7R,8aS,9R)-3,8a-dihydroxy-11-methyl-7-(2-oxo-2-(piperidin-1-yl)ethyl)-8,8a,9,10-tetrahydro-5H-9,4b-(epiminoethano)phenanthren-6(7H)-one] | – | – | – | – | 581 ± 22.1 nM | 74 ± 0.58% | 1200 ± 114 nM | 43 ± 1.73%
10 | CN1CC[C@]23CC(=O)[C@@H](CC(=O)N4CCC(O)CC4)C[C@@]2(O)[C@H]1Cc1ccc(O)cc13 [Compound 81, (4bR,7R,8aS,9R)-3,8a-dihydroxy-7-(2-(4-hydroxypiperidin-1-yl)-2-oxoethyl)-11-methyl-8,8a,9,10-tetrahydro-5H-9,4b-(epiminoethano)phenanthren-6(7H)-one] | – | – | – | – | 1000 ± 276 nM | 84.3 ± 3.84% | 6510 ± 1190 nM | 34 ± 2.65%
11 | CC(C)CNC(=O)C[C@H]1C[C@@]2(O)[C@H]3Cc4ccc(O)cc4[C@@]2(CCN3C)CC1=O [Compound 82, 2-((4bR,7R,8aS,9R)-3,8a-dihydroxy-11-methyl-6-oxo-6,7,8,8a,9,10-hexahydro-5H-9,4b-(epiminoethano)phenanthren-7-yl)-N-isobutylacetamide] | 2330 ± 200 nM | 67.8 ± 4.01% | – | – | – | – | – | –
12 | CN1CC[C@]23CC(=O)[C@@H](CC(=O)NCc4ccccc4)C[C@@]2(O)[C@H]1Cc1ccc(O)cc13 [Compound 83, N-benzyl-2-((4bR,7R,8aS,9R)-3,8a-dihydroxy-11-methyl-6-oxo-6,7,8,8a,9,10-hexahydro-5H-9,4b-(epiminoethano)phenanthren-7-yl)acetamide] | 456 ± 36.7 nM | 75 ± 5.51% | – | – | – | – | – | –
13 | CN1CC[C@]23CC(=O)[C@@H](CC(=O)NCC4CC4)C[C@@]2(O)[C@H]1Cc1ccc(O)cc13 [Compound 84, N-(cyclopropylmethyl)-2-((4bR,7R,8aS,9R)-3,8a-dihydroxy-11-methyl-6-oxo-6,7,8,8a,9,10-hexahydro-5H-9,4b-(epiminoethano)phenanthren-7-yl)acetamide] | 1260 ± 301 nM | 57.7 ± 2.73% | – | – | – | – | – | –
